Measurements: patent publication US6887862B2, “Method for improving treatment selectivity and efficacy using intravascular photodynamic therapy” (Miravant Systems, Inc., priority 2001, dated 2005)
“Also recorded” adds a separate entry of the source.

Key:
rat carotid artery = test: Intravascular PDT treatment of rat carotid artery, histology (H&E) and clinical observation; assay type: in vivo; details: for Adverse symptoms in animals / PDT-induced damage in surrounding tissue (histology) / Acellularity within the media (H&E): blue light approximately 458 nm; for Acellularity in the medial wall / PDT effect / damage in surrounding tissue: balloon blood exclusion
From the text: The central lumen of this catheter was designed to allow passage of an optical fiber having a diffuser at its distal end. The fiber was positioned such that the diffusing section was centered within the light delivery balloon, thereby providing intravascular light delivery with minimal absorption by blood. Excitation was typically provided by a laser source at the proximal end of the device, which was focused on the proximal end of the fiber-optic diffuser. Typical wavelengths used were 405 nm, 407 nm, 413 nm, 436 nm, 442 nm, 458 nm, 514 nm, 532 nm, and the general range of 570-610 nm.
The surgery was performed by doing a cutdown to allow access to the right femoral artery, followed by insertion of the light delivery catheter. The catheter was then passed up through the iliac and abdominal aorta, through the aortic arch and into the left carotid artery. Once in place, the balloon was inflated to approximately 1 atmosphere using a standard angioplasty inflation device. This caused the balloon to expand to the diameter of the artery, while still allowing the pressure to be kept low enough to prevent significant over-stretch of the artery.
Prior to this surgery, the rats were injected with a photosensitizer drug to allow uptake of the drug into the target tissues. […] Induction of acellularity is believed to inhibit intimal hyperplasia, the most common cause of restenosis in post-angioplasty patients.
FIG. 1 is a low magnification image of a tissue cross section taken from the throat of a rat that has received PDT therapy using intravascular red light. […] (A bare fiber diffuser was used here since complete blood elimination is not necessary at this wavelength due to the relatively high penetration of light through blood at this wavelength.) The animal was sacrificed 4 days after the PDT treatment, the throat section was harvested, embedded and stained using hematoxylin and eosin (H&E). […] A balloon was placed around the fiber light diffuser here since it is important to eliminate blood at these wavelengths due to the optical absorption of hemoglobin. […] The animal was sacrificed 5 days after the PDT treatment, the throat section was harvested, embedded and stained using hematoxylin and eosin (H&E). […] In fact, it is widely believed that viable smooth muscle cells in the media and adventia are the source of the proliferating cells that are responsible for restenosis.
In FIG. 9, the results are listed in the columns titled Max. Accell., listing the acellularity measured in the section for which the acellularity was highest and Sur. Tissue Damage, listing the degree of surrounding tissue damage. […] The desired objective was to achieve significant acellularity with minimal damage to surrounding tissue.

coronary artery = test: Intravascular PDT treatment of swine coronary artery, heart harvested after treatment; assay type: in vivo
[1] = Uptake of the drug within the target tissues by fluorescence microscopy and HPLC; assay type: in vivo; details: rat, systemic administration
Protocol: Prior to this surgery, the rats were injected with a photosensitizer drug to allow uptake of the drug into the target tissues. Uptake of the drug within the target tissues was confirmed by fluorescence microscopy and high pressure liquid chromatography (HPLC). […] Induction of acellularity is believed to inhibit intimal hyperplasia, the most common cause of restenosis in post-angioplasty patients. […] To our knowledge, such efficacy using intravascular light has never been achieved previously with PDT. […] This was notable since the target tissues appeared to contain a higher drug concentration and they were also located closest to the light source.

[2] = Optical absorption spectrum of MV6401; assay type: physicochemical; details: near 458 nm and 532 nm (FIG. 8)
[3] = rat carotid, approximately 2 hours after drug injection (FIG. 15)
[4] = rat carotid, intravascular light at wavelengths within the disclosed 390-610 nm range
[5] = rat carotid, approximately 4 hours after drug injection (FIG. 14)
[6] = intravascular red light, high PDT doses

With benzoporphyrin derivative [BPD] the “Adverse symptoms in animals” value (rat carotid artery; [3]) was “no animals displayed adverse symptoms”, the “PDT-induced damage in surrounding tissue (histology)” value (rat carotid artery; [3]) was “minimal evidence of PDT-induced damage in surrounding tissue” and the “Acellularity within the media (H&E)” value (rat carotid artery; rat carotid, approximately 2 hours after drug injection, 3 days after PDT (FIG. 15)) was “nearly complete acellularity within the media”. The “Acellularity in the medial wall” value (rat carotid artery; [4]) was “acellularity was induced in the medial wall” and the “PDT effect / damage in surrounding tissue” value (from here on “PDT effect / damage”) (rat carotid artery; [4]) was “largely sparing the surrounding tissue”.

In the case of `CC(=O)[O-].CC(=O)[O-].CCc1c(CC)c2cc3nc(cnc4cc(OCCOCCOCCOC)c(OCCOCCOCCOC)cc4ncc4nc(cc1[n-]2)C(CCCO)=C4C)C(C)=C3CCCO.O.[Lu+3]` [LuTex, lutetium texaphyrin], the “Adverse symptoms in animals” value (rat carotid artery; [5]) is reported as “no animals displayed adverse symptoms”, the “PDT-induced damage in surrounding tissue (histology)” value (rat carotid artery; [5]) is reported as “minimal evidence of PDT-induced damage in surrounding tissue” and the “Acellularity within the media (H&E)” value (rat carotid artery; rat carotid, approximately 4 hours after drug injection, 3 days after PDT (FIG. 14)) is reported as “nearly complete acellularity within the media”. For the same molecule, the “Acellularity in the medial wall” value (rat carotid artery; [4]) was “acellularity was induced in the medial wall” and the “PDT effect / damage” value (rat carotid artery; [4]) was “largely sparing the surrounding tissue”.

With `O=C([O-])c1c(Cl)c(Cl)c(Cl)c(Cl)c1-c1c2cc(I)c(=O)c(I)c-2oc2c(I)c([O-])c(I)cc12.[Na+].[Na+]` [Rose Bengal] the “Acellularity in the medial wall” value (rat carotid artery; [4]) was “acellularity was induced in the medial wall” and the “PDT effect / damage” value (rat carotid artery; [4]) was “largely sparing the surrounding tissue”.

With `C=Cc1c(C)c2[n]3c1=CC1=NC(=Cc4c(C)c5c([n]4[In]3[Cl])C(=C3N=C(C=2)[C@@H](C)[C@@H]3CCC(=O)OC)CC5=O)C(CC)=C1C` [MV6401] the “Clinical evidence of adverse PDT treatment effect” value (rat carotid artery; [4]) was “no clinical evidence of an adverse PDT treatment effect”, the “Acellularity in the medial wall” value (rat carotid artery; [4]) was “acellularity was induced within the medial wall; also recorded: acellularity was induced in the medial wall” and the “PDT effect / damage” value (rat carotid artery; [4]) was “very minimal PDT effect in the surrounding tissue; also recorded: largely sparing the surrounding tissue”. For the same molecule, the “PDT treatment effect in the target tissue (histology)” value (rat carotid artery; rat carotid, intravascular red/infrared light) was “little or no PDT treatment effects in the target tissue”, the Clinical symptoms (rat carotid artery; rat, 2 μmol/kg systemic, 458 nm, 100 J/cm^2, light 4 hours post drug (FIG. 3)) was “no adverse clinical symptoms” and the “Acellularity in the vessel wall” value (rat carotid artery; rat, 2 μmol/kg systemic, 458 nm, 100 J/cm^2, light 4 hours post drug (FIG. 4)) was “complete acellularity was induced in the vessel wall”. The “Surrounding tissue damage (inflammation and necrosis, H&E)” value (rat carotid artery; rat, 2 μmol/kg systemic, 458 nm, 100 J/cm^2, light 4 hours post drug, balloon device, sacrificed 5 days after PDT (FIG. 3)) was “minimal PDT-induced inflammation and necrosis”, the “Acellularity within the vessel media and adventia” value (coronary artery; blue (458 nm) or green (532 nm) intravascular light, surrounding tissue damage of the order of FIG. 6 and 7) was “complete acellularity can be achieved within the vessel media and adventia” and the “PDT-induced damage to myocardium / surrounding tissue” value (coronary artery; intravascular blue light (458 nm) (FIG. 6)) was “minimal damage to the myocardium”. For the same molecule, the “PDT-induced damage to myocardium / surrounding tissue” value (coronary artery; intravascular green light (532 nm) (FIG. 7)) was “minimal damage to the myocardium”, the “Acellularity in media or adventia of the vessel” value (coronary artery; [6]) was “insignificant acellularity was induced in the media or adventia of the vessel” and the Clinical reactions (coronary artery; [6]) was “severe adverse clinical reactions”. For the same molecule, the “Localization / uptake of photosensitizer in target tissue versus surrounding tissue” value [1] was “more strongly localized in the target tissue; also recorded: taken up preferentially in the target vessel tissue” and the “Absorption (molar extinction coefficient)” value [2] was > 1000 L cm^−1 M^−1.
